Assay results from patent US20180028982A1, “CONTAINER WITH BIOFILM FORMATION-INHIBITING MICROORGANISMS IMMOBILIZED THEREIN AND MEMBRANE WATER TREATMENT APPARATUS USING THE SAME” (SNU R&DB FOUNDATION, priority 2010, published 2018).

System: AI-2 quorum sensing mechanism
Test: Inhibition of AI-2 quorum sensing, bioluminescence of Vibrio harveyi BB170 after reaction with Vibrio harveyi BB152 samples
Assay type: cell-based
Conditions: farnesol 800 μM on Vibrio harveyi BB152, reaction for 90 minutes, versus no farnesol (Control)
Excerpt: The effect of inhibition of quorum sensing for certain microorganisms (bacteria) for water treatment by farnesol secreted by the biofilm formation-inhibiting microorganisms, i.e., Candida albicans is thought to be attributed to the inhibition of quorum sensing mechanism using AI-2 signal molecules, which was indirectly assessed by means of Vibrio harveyi BB152, a bacteria producing only AI-2, and Vibrio harveyi BB170, bacteria allowing bioluminescence by specifically accepting only AI-2. Particularly, Vibrio harveyi BB152 producing only AI-2 signal molecules was inoculated in an AB medium (Autoinducer Bioassay medium, Tega et al., 2011) and cultivated to a certain degree of optical density (O.D.600) of 0.1-0.3. Farnesol was injected to attain final concentration of 800 μM (and no farnesol was injected for its comparison), each sample was taken after reaction for 90 minutes, and the each sample was reacted with Vibrio harveyi BB170 to measure bioluminescence. As a result, the bioluminescence of Vibrio harveyi BB170 was decreased by about 42 percents for the case of […] (designated as “Control”) when compared to the case of injecting the farnesol (see FIG. 18).

## CC(C)=CCCC(C)=CCCC(C)=CCO [Farnesol, farnesol]
  decrease of bioluminescence of Vibrio harveyi BB170: about 42 percents
